Experimental data published in PubChem BioAssay AID200 (DTP/NCI, 2004).
Several values for one entry are separate records, joined by “and”; a condition that tells them apart may be missing. Equal entries are not always repeated. Toxic doses and inconclusive results are not listed. Where a SMILES comes first, the peptide text is derived from it.

Test system: B6C3F1 mice, B16 melanoma ip, median survival T/C
Assay: NCI In Vivo Anticancer Drug Screen. Data for tumor model B16 Melanoma (intraperitoneal) in B6C3F1 mice
Settings: endpoint: median survival time, higher = longer survival
Procedure, shortened: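 Tumor-bearing mice received test compound; a separate group got vehicle only. Survival was then compared, with results reported as treated over control.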

[1] = dose: 50.0 mg/kg/injection, schedule: Q01DX009 (ip), vehicle: Klucel (hydroxypropylcellulose) (HPC)
[2] = dose: 100.0 mg/kg/injection, schedule: Q01DX009 (ip), vehicle: Klucel (hydroxypropylcellulose) (HPC)
[3] = dose: 200.0 mg/kg/injection, schedule: Q01DX009 (ip), vehicle: Klucel (hydroxypropylcellulose) (HPC)
[4] = dose: 400.0 mg/kg/injection, schedule: Q01DX009 (ip), vehicle: Klucel (hydroxypropylcellulose) (HPC)

In the case of `CN=C(N)N/N=C(\C)c1ccc2c(c1)Cc1cc(/C(C)=N/NC(N)=NC)ccc1-2`, the T/C (dose: 0.75 mg/kg/injection, schedule: Q01DX009 (ip), vehicle: saline with Tween-80) is reported as 97 % of control and the T/C (dose: 1.5 mg/kg/injection, schedule: Q01DX009 (ip), vehicle: saline with Tween-80) is reported as 101 % of control.
For `CCCN(CCC)C(C)C(O)c1cc2c(c3ccccc13)CCCC2` (stereo not drawn), the T/C (dose: 0.05 mg/kg/injection, schedule: Q01DX009 (ip), vehicle: Klucel (hydroxypropylcellulose) (HPC)) was 99 % of control, the T/C (dose: 0.1 mg/kg/injection, schedule: Q01DX009 (ip), vehicle: Klucel (hydroxypropylcellulose) (HPC)) was 91 % of control and 103 % of control and the T/C (dose: 0.2 mg/kg/injection, schedule: Q01DX009 (ip), vehicle: Klucel (hydroxypropylcellulose) (HPC)) was 97 % of control and 107 % of control. The T/C (dose: 0.39 mg/kg/injection, schedule: Q01DX009 (ip), vehicle: Klucel (hydroxypropylcellulose) (HPC)) was 109 % of control, the T/C (dose: 0.4 mg/kg/injection, schedule: Q01DX009 (ip), vehicle: Klucel (hydroxypropylcellulose) (HPC)) was 96 % of control and 101 % of control and the T/C (dose: 0.78 mg/kg/injection, schedule: Q01DX009 (ip), vehicle: Klucel (hydroxypropylcellulose) (HPC)) was 108 % of control. For the same molecule, the T/C (dose: 1.56 mg/kg/injection, schedule: Q01DX009 (ip), vehicle: Klucel (hydroxypropylcellulose) (HPC)) was 114 % of control and 95 % of control and 96 % of control, the T/C (dose: 3.12 mg/kg/injection, schedule: Q01DX009 (ip), vehicle: Klucel (hydroxypropylcellulose) (HPC)) was 94 % of control and the T/C (dose: 6.25 mg/kg/injection, schedule: Q01DX009 (ip), vehicle: Klucel (hydroxypropylcellulose) (HPC)) was 96 % of control and 101 % of control. For the same molecule, the T/C [1] was 86 % of control.
`N[C@@H](Cc1ccc(N(CCCl)CCCl)cc1)C(=O)O` was tested, and the T/C (dose: 0.25 mg/kg/injection, schedule: Q01DX009 (ip), vehicle: saline) was 111 % of control and 124 % of control, the T/C (dose: 0.25 mg/kg/injection, schedule: Q01DX009 (ip), vehicle: water) was 124 % of control and the T/C (dose: 1.0 mg/kg/injection, schedule: Q01DX009 (ip), vehicle: water) was 183 % of control. For the same molecule, the T/C (dose: 2.0 mg/kg/injection, schedule: Q01DX009 (ip), vehicle: saline with Tween-80) was 176 % of control, the T/C (dose: 2.0 mg/kg/injection, schedule: Q01DX009 (ip), vehicle: water) was 194 % of control and the T/C (dose: 2.0 mg/kg/injection, schedule: Q04DX003 (ip), vehicle: saline) was 164 % of control. For the same molecule, the T/C (dose: 2.5 mg/kg/injection, schedule: Q04DX003 (ip), vehicle: saline) was 182 % of control, the T/C (dose: 4.0 mg/kg/injection, schedule: Q01DX009 (ip), vehicle: saline with Tween-80) was 387 % of control and the T/C (dose: 4.0 mg/kg/injection, schedule: Q04DX003 (ip), vehicle: saline) was 204 % of control. The T/C (dose: 5.0 mg/kg/injection, schedule: Q04DX003 (ip), vehicle: saline) was 217 % of control, the T/C (dose: 7.31 mg/kg/injection, schedule: Q01DX001 (ip), vehicle: other) was 172 % of control and the T/C (dose: 7.5 mg/kg/injection, schedule: Q04DX003 (ip), vehicle: saline) was 230 % of control and 240 % of control. For the same molecule, the T/C (dose: 9.75 mg/kg/injection, schedule: Q01DX001 (ip), vehicle: other) was 157 % of control, the T/C (dose: 10.0 mg/kg/injection, schedule: Q04DX003 (ip), vehicle: saline) was 79 % of control and the T/C (dose: 13.0 mg/kg/injection, schedule: Q01DX001 (ip), vehicle: other) was 173 % of control.
In the case of `CC(C)CC(NC(=O)CNC(=O)C(CC(C)C)NC(=O)CN)C(=O)O` (stereo not drawn) (H-GLGL-OH; configuration not given here), the T/C [2] is reported as 120 % of control, the T/C [3] is reported as 118 % of control and the T/C [4] is reported as 122 % of control.
In the case of `Cc1ccc(S(=O)(=O)OCOS(=O)(=O)c2ccc(C)cc2)cc1`, the T/C [1] is reported as 120 % of control and 122 % of control, the T/C [2] is reported as 117 % of control and the T/C [3] is reported as 154 % of control. The T/C [4] was 191 % of control.
For `Cc1cc2nc3ccc(N)cc3oc-2cc1=[N+](C)C`, the T/C (dose: 12.5 mg/kg/injection, schedule: Q01DX009 (ip), vehicle: saline) was 106 % of control and the T/C (dose: 25.0 mg/kg/injection, schedule: Q01DX009 (ip), vehicle: saline) was 112 % of control.
`CN=C(N)NCCCCCCCCNC(N)=NC` was tested, and the T/C (dose: 6.25 mg/kg/injection, schedule: Q01DX009 (ip), vehicle: saline with Tween-80) was 102 % of control and the T/C (dose: 12.5 mg/kg/injection, schedule: Q01DX009 (ip), vehicle: saline with Tween-80) was 98 % of control.
In the case of `COc1cccc2c1C(=O)c1c(O)c3c(c(O)c1C2=O)C[C@@](O)(C(C)O)C[C@@H]3OC1CC(N2CCOCC2)C(O)C(C)O1` (stereo partly drawn), the T/C (dose: 0.06 mg/kg/injection, schedule: Q01DX001 (ip), vehicle: water) is reported as 111 % of control, the T/C (dose: 0.13 mg/kg/injection, schedule: Q01DX001 (ip), vehicle: water) is reported as 115 % of control and the T/C (dose: 62.5 micrograms/kg/injection, schedule: Q01DX001 (ip), vehicle: water) is reported as 107 % of control. The T/C (dose: 125.0 micrograms/kg/injection, schedule: Q01DX001 (ip), vehicle: water) was 106 % of control and the T/C (dose: 250.0 micrograms/kg/injection, schedule: Q01DX001 (ip), vehicle: water) was 120 % of control.
